Data from patent US20230075422A1, “USE OF FUCOSYLATION INHIBITOR FOR PRODUCING AFUCOSYLATED ANTIBODY” (BRISTOL-MYERS SQUIBB COMPANY, priority 2019, published 2023).

Legend:
Assay type in all cases: cell-based
[1] = system: fucosylation of antibodies; test: Electropherograms of antibody preparations, glycoform peaks (FIGS. 3A-3C); conditions: cells cultured with 6 mM or 10 mM inhibitor vs no inhibitor
Method: FIGS. 3A, 3B and 3C show electropherograms of antibody preparations made using cells cultured without a fucosylation inhibitor or in the presence of 6 mM or 10 mM Ac-GDP-D-rhamnose, respectively. Peaks for different glycoforms are indicated, with white boxes for fucosylated species and dark boxes for nonfucosylated species.

[2] = system: antibody production cell line; test: Antibody titers of the same antibody preparations (FIG. 2B); conditions: same preparations as FIG. 2A, inhibitor 1 mM to 6 mM, compared with GDP-D-rhamnose
[3] = system: fucosylation of antibodies; test: Percentage of nonfucosylated antibodies for antibodies grown in the presence of fucosylation inhibitors (FIG. 2A); conditions: antibodies grown in presence of inhibitor at 1 mM to 6 mM
Method: The level of fucosylation in an antibody preparation may be determined by any method known in the art, including but not limited to gel electrophoresis, liquid chromatography, and mass spectrometry. Unless otherwise indicated, for the purposes of the present invention, the level of fucosylation in an antibody preparation is determined by hydrophilic interaction chromatography (or hydrophilic interaction liquid chromatography, HILIC), essentially as described at Example 2. To determine the level of fucosylation of an antibody preparation, samples are denatured treated with PNGase F to cleave N-linked glycans, which are then analyzed for fucose content. LC/MS of full-length antibody chains is an alternative method to detect the level of fucosylation of an antibody preparation, but mass spectroscopy is inherently less quantitative.
Nonfucosylated antibody preparations may be analyzed to determine the percentage of afucosylated heavy chains essentially as follows.
Antibodies are first denatured using urea and then reduced using DTT (dithiothreitol). Samples are then digested overnight at 37° C. with PNGase F to remove N-linked glycans. […] The resulting labeled glycans are then resolved on a HILIC column and the eluted fractions are quantified by fluorescence and dried. […] Untreated samples and BKF-treated samples are then analyzed by liquid chromatography. […]

Compound | proportion of nonfucosylated species (glycoforms) [1] | antibody titer (yield) [2] | percentage of nonfucosylated antibodies [3]
Ac-GDP-D-rhamnose | increase the proportion of nonfucosylated species | less deleterious effect on titer | as effective as GDP-D-rhamnose
C[C@H]1O[C@H](OP(=O)(O)OP(=O)(O)OC[C@H]2O[C@@H](n3cnc4c(=O)[nH]c(N)nc43)[C@H](O)[C@@H]2O)[C@@H](O)[C@@H](O)[C@@H]1O [GDP-D-rhamnose] | – | – | increasing the percentage of nonfucosylated antibodies
